Measured values published in patent US5643868A, “Method of treating or preventing type 1 diabetes by oral administration of insulin” (Autoimmune, Inc., priority 1995, dated 1997).
Several values for one entry are separate records, joined by “and”; a condition that tells them apart may be missing. Equal values may be shown once. Entries after “also recorded” stand apart in the source; their conditions may differ.

Tests used:
Assay type in all cases: in vivo
[1] = system: NOD (non-obese diabetic) mice; assay: Effect of feeding porcine insulin on spontaneous diabetes in NOD mice (Example 1)
Description: NOD (non-obese diabetic mice) were obtained from Taconic Laboratories (Germantown, Mass.) at 4 weeks of age. There were a total of 30 animals in each of the groups mentioned below at the beginning of the experiment. At 41/2 weeks of age, animals were orally administered Porcine insulin (Novo Laboratories, Danbury, Conn.). Each animal received two treatments orally twice a week until 9 weeks of age. The mice were fed either saline (control) or 10 micrograms, 100 micrograms, or 1 milligram of Porcine insulin. The animals were fed (gavaged) with an 18 gauge ball-point needle (Popper and Sons, Inc., New Hyde Park, N.Y.). Beginning at 10 weeks the animals were then fed once a week for a total of 33 weeks. Beginning at 12 weeks the urine was tested weekly for the presence of glucose using Glucosuria test tape (Eli Lilly, Indianapolis, Ind.). If an animal tested 3+ or higher on the glucose urine test, a serum sample was taken and blood glucose measured using a glucose analyzer (Beckman). If the blood glucose was 220 or higher, the animals were classified as diabetic and then sacrificed.

NOD mice [2] = assay: Effect of aerosol administration of insulin on diabetes in NOD mice (Example 4); settings: 0 to 1 mg insulin in aerosol form by nebulizer
Description: Insulin (0 to 1 mg as in Examples 1 and 2) will be administered to NOD mice as described above in Examples 1 and 2 except in aerosol form by nebulizer.

NOD mice [3] = assay: Treatment of initial stages of diabetes in NOD mice (Example 5); settings: 0 to 1 mg insulin, oral and aerosol, hyperglycemic mice from weeks 12-20 of age
Description: Insulin (0 to 1 mg as in Examples 1 and 2) will be administered to NOD mice which are suffering from hyperglycemia in an oral and aerosol form. The treatments will begin by weeks 12-20 of age, by which the serum glucose levels are at hyperglycemic concentrations in a certain percentage of animals prior to onset of diabetes.

NOD mice [4] = assay: Preliminary experiments: insulitis in NOD mice fed insulin; settings: fed 1 mg of insulin; data not shown
Description: Therefore, oral administration of insulin to NOD mice appeared to be affecting the infiltration of immune system cells into the pancreas and thus halting disease progression by preserving beta cell function.

NOD mice [5] = assay: Glucose post oral insulin in fasting 7 week NOD mice (Example 2); settings: for blood glucose over the next 24 hours: animals in fasting state; for blood glucose after feeding: fasting 7 week old mice
Description: In order to determine whether any endocrinologic (i.e. direct lowering of blood sugar) effects occurred following the feeding of insulin, 7 week old NOD mice (5 mice per group) were fed 1 mg of porcine insulin or 1 mg of myelin basic protein (obtained from Pel Freez, Rogers, Ark.) as a control protein. Blood glucose was then measured over the next 24 hour period. As a positive control, a separate group of animals were injected subcutaneously with 20 micrograms of Porcine insulin. All animals were kept in the fasting state.

Substance: insulin
- development of diabetes ([1]; 1 mg porcine insulin fed orally (gavage), diabetic = blood glucose 220 or higher): none of the mice went on to develop diabetes; also recorded: no diabetes developed in any of the animals; also recorded: None of the animals developed diabetes
- development of diabetes ([1]; 10 micrograms porcine insulin fed orally): diabetes developed
- incidence of diabetes, all oral doses tested ([1]; 10 micrograms, 100 micrograms, 1 mg oral, dose-dependent): lower incidence of diabetes at all doses; also recorded: reduced the numbers of these mice which subsequently went on to develop diabetes
- development of diabetes ([1]; 100 micrograms porcine insulin fed orally): diabetes developed
- blood sugar of individual animals which developed diabetes ([1]; fed 10 micrograms of insulin): 330 mg/dL and 420 mg/dL and 315 mg/dL and 459 mg/dL and 520 mg/dL and 487 mg/dL
- blood sugar of individual animals that became diabetic ([1]; fed 100 micrograms of insulin): 500 mg/dL and 290 mg/dL and 600 mg/dL and 450 mg/dL
- treated animals that failed to develop diabetes ([1]; highest dose of oral insulin (1 mg)): 100%
- prevention of symptoms (hyperglycemia) of Type 1 diabetes (NOD mice [2]): effective in preventing the manifestation of symptoms
- beta cell function (NOD mice [3]): preservation of beta cell function
- serum glucose concentrations (NOD mice [3]): reduction in serum glucose concentrations to near normal levels
- inflammatory immune system cells surrounding the pancreas (insulitis) vs PBS-fed mice (NOD mice [4]): fewer inflammatory immune system cells surrounding the pancreas
- endocrinologic (metabolic) effects of feeding (NOD mice [5]; 1 mg fed orally): no endocrinologic (metabolic) effects
- blood glucose over the next 24 hours (NOD mice [5]; 1 mg fed orally): gradual decrease in blood glucose
- blood glucose after feeding (NOD mice [5]; 1 mg fed orally): no drop in the blood glucose
- decrease in the glucose level (NOD mice [5]; 20 micrograms porcine insulin injected subcutaneously (positive control), fasting): approximately 80 mg %
- period over which the drop in glucose persisted (NOD mice [5]; 20 micrograms porcine insulin subcutaneously, fasting): 4 h

Substance: myelin basic protein
- blood glucose over the next 24 hours (NOD mice [5]; 1 mg fed orally): gradual decrease in blood glucose
- blood glucose after feeding (NOD mice [5]; 1 mg fed orally): no drop in the blood glucose
